Source: patent US9771430B2, “Method of treating a metabolic disorder induced by obesity in a subject in need thereof by administering MK2/3 inhibitors” (THE TRUSTEES OF COLUMBIA UNIVERSITY IN THE CITY OF NEW YORK, priority 2011, dated 2017)

Key:
[1] = tested on: CaMKII; type: cell-based, mouse
Protocol: FIG. 1A. CaMKII enzyme activity was assayed in triplicate wells of primary mouse HCs stimulated with 100 nM glucagon (Gluc) or vehicle control (Veh) for the indicated times (*P<0.05 and **P<0.01 vs. Veh; mean±S.E.M.). FIGS. 1B-1J. Extracts of HCs or liver were probed for phospho-CaMKII, total CaMKII, and β-actin by immunoblot assay. FIG. 1B. HCs were incubated with […] glucagon for the indicated times; FIG. 1C. Glucagon was added to HCs that were pre-treated for 1 h with vehicle control (Veh) or 5 μM BAPTA-AM; FIG. 1D. Glucagon was added to HCs that were pre-treated with 0.5 μM xestospongin (XesC) or to HCs from Ip3r1fl/fl mice transduced with adeno-LacZ control or adeno-Cre (bar graph=Ip3r1 mRNA levels); FIG. 1E. Glucagon was added to HCs that were pre-treated for 1 h with vehicle control (Veh) or 10 μM H89. FIG. 1F. […] FIGS. 1G-1J. In vivo experiments. In FIG. 1G, mice were treated for 30 min with 200 μg kg−1 body weight of glucagon i.p., and in FIG. 1H, mice were pre-treated with 10 pmol g−1 xestospongin C or vehicle control i.p. 4 days prior to glucagon treatment. In FIGS. 1I-1J, mice were fed ad libitum or fasted for 12 h, or fasted for 12 h and then re-fed for 4 h.
Total RNA was extracted from hepatocytes using the RNeasy kit (Qiagen). cDNA was synthesized from 2 μg total RNA using oligo (dT) and Superscript II (Invitrogen). Real-time qPCR analysis and western blotting were performed as previously described (Timmins et al., 2009). Nuclear extraction from liver was performed using the Nuclear Extraction Kit from Panomics according to the manufacturer's instructions.
Immunoblot and RT-qPCR assays were performed as previously described (Timmins et al., 2009). Total RNA was extracted from HCs using the RNeasy kit (Qiagen). cDNA was synthesized from 2 μg total RNA using oligo (dT) and Superscript II (Invitrogen). Nuclear extraction from liver was performed using the Nuclear Extraction Kit from Panomics according to the manufacturer's instructions.

[2] = tested on: cytosolic free calcium; assay: Calcium mobilization in primary hepatocytes (Fura-2 imaging); type: cell-based, mouse; details: co-/pre-treatment with inhibitor
Protocol: Mouse primary hepatocytes were plated on glass coverslips and loaded with 5 μM Fura-2 acetoxymethyl ester (Molecular Probes) in the presence of 0.025% (w/v) pluronic F127 (Sigma-Aldrich) in Media 199 (Mediatech) for 30 minutes. […] The ratio of fluorescence intensity at the two excitation wavelengths was calculated after subtracting background fluorescence. [Ca2+]I (cytosolic free calcium concentration) was calculated using a Fura-2 calcium imaging calibration kit (Invitrogen). Images were collected and analyzed using the MetaFluor software package (Universal Imaging Corp.). Graphs represent average responses from groups of 30-40 individual cells from representative single experiments. Bar graphs represent average responses (fold over average baseline) from 150-200 cells per condition. All experiments were repeated at least three times with similar results.

[3] = tested on: IP3R; assay: IP3R activity in FAO hepatocytes (Inositol/ATP-induced calcium release assay); type: cell-based, rat
Description: FIGS. 49A-S. The role of IP3R in forskolin/glucagon-induced G6Pase/PEPCK in cultured hepatocytes and in fasting blood glucose in vivo. FIG. 49 A,B. FSK-Induced G6Pase and PEPCK is Calcium-Dependent. FIG. 49C-D. IP3R Activity is Required for Forskolin- and Glucagon-Induced G6Pase and PEPCK (FAO rat hepatocyte cell line). FIG. 49E-F. IP3R Activity is Required for Forskolin-Induced G6Pase and PEPCK (primary murine hepatocytes). FIG. 49G-H. IP3R1 Anti-Sense Oligonucleotide Suppresses Forskolin-Induced G6Pase and PEPCK (primary murine hepatocytes). FIG. 49I. Forskolin Activates IP3R Activity in FAO Hepatocytes (Inositol/ATP-Induced Calcium Release Assay). FIG. 49J. The PKA Inhibitor H89 Suppresses Forskolin-Induced IP3R Activation. FIG. 49K-L. IP3R Activity is Required for Forskolin-Induced PGC1a. FIG. 49M-N. Calcineurin Inhibitory Peptide Suppresses Forskolin-Induced G6Pase and PEPCK. FIG. 49O. IP3R Activity is Required for Forskolin-Induced Calcineurin Activation. FIG. 49P-Q. IP3R Activity is Required for Forskolin-Induced TORC2 Dephosphorylation and Nuclear Localization. FIG. 49R. TORC2 Transduction Partially Restores Forskolin-Induced G6Pase in IP3R-Inhibited Hepatocytes. FIG. 49S. Xestospongin C Treatment Reduces Fasting Glucose Levels in C57BL/6J Mice.

[4] = tested on: Akt; assay: Insulin-induced Akt phosphorylation in palmitate-treated primary mouse hepatocytes; type: cell-based; details: HCs with normal p38 (Ad-LacZ)
Protocol: FIGS. 92A-D. Inhibition of CaMKII or p38α Improves Insulin-induced Akt Phosphorylation in Palmitate-treated Primary Hepatocytes. FIG. 92A. Primary HCs from WT mice were transduced with adeno-LacZ or -K43A-CaMKII at an MOI of 10 and then 24 h later incubated with either BSA control or 0.2 mM palmitate for 19 h, with the last 5 h in serum-free media. The cells were then treated with 100 nM insulin or vehicle control for 5 min, and lysates were probed for p-Akt, total Akt, and β-actin by immunoblot (left panel) or immunoprecipitated for IRS-1 and then assayed by immunoblot for the total level of IRS-1 or for phospho-Tyr (PY) (right panel). FIG. 92B. HCs from Mapk14^fl/fl mice were transduced with adeno-LacZ or -Cre and 24 h later incubated with palmitate and then insulin as in FIG. 92A. Lysates were probed for p-Akt, total Akt, β-actin (upper panel), p-GSK3β, total GSK3β, p-FoxO1 and total FoxO1 by immunoblot or immunoprecipitated for IR and IRS-1 and then assayed by immunoblot for the total level of the respective proteins or for phospho-Tyr (lower panel). FIG. 92C. Primary human HCs (metabolism-controlled) were transduced with adeno-LacZ or -K43A-CaMKII at an MOI of 30 and then 36 h later incubated with either BSA control or 0.2 mM palmitate for 10 h, with the last 5 h in serum-free media. […]

[5] = tested on: dach1 and dach2 mRNA; assay: dach1 and dach2 mRNA in primary mouse hepatocytes; type: cell-based; details: WT HCs, 0.5 mM, 6 h
Protocol: FIG. 115. Palmitate induces dach1 and dach2 mRNA levels. Primary HCs from WT mice were treated with 0.5 mM palmitate for 6 h. RNA was assayed for dach1 and dach2 mRNA by RT-qPCR (*p<0.05; mean±S.E.M.).

[6] = tested on: TRB3; assay: TRB3 levels in primary mouse hepatocytes; type: cell-based; details: control HCs
Protocol: FIGS. 93A-E: Improvement in Insulin-induced Akt Phosphorylation and Glucose Homeostasis by CaMKII Deficiency are Abrogated by Restoring TRB3. FIG. 93A. HCs from Camk2g^fl/fl mice were transduced with adeno-LacZ or -Cre and then 24 h later incubated with BSA or palmitate (0.2 mM) for 19 h. Lysates were immunoblotted for TRB3 and β-actin. FIG. 93B. TRB3 and β-actin were probed in livers from DIO WT mice, Camk2g^−/− mice, or Camk2g^fl/fl mice treated with TBG-LacZ or TBG-Cre. Densitometric quantification of the immunoblot data is shown in the graph (*p<0.05; mean±S.E.M.). FIGS. 93C-E. DIO Camk2g^fl/fl mice were treated with TBG-Cre or TBG-LacZ, and five days later, half of the […] received adeno-TRB3, while the other half received adeno-LacZ control. Livers were assayed for p-Akt, total Aid, TRB3 and β-actin by immunoblotting after fasting the mice for 16 h and then re-feeding them for 4 h. 5 h fasting and fasted-refed blood glucose and plasma insulin were assayed after 4 weeks of treatment (Differing symbols indicate p<0.05; mean±S.E.M.). See also FIG. 99.

[7] = tested on: ATF4; assay: Nuclear ATF4 in primary mouse hepatocytes; type: cell-based; details: control HCs
Protocol: FIGS. 94A-F: Improvement in Insulin-induced Akt Phosphorylation and Glucose Homeostasis by CaMKII Deficiency are Abrogated by Restoring ATF4. FIG. 94A. HCs from Camk2g^fl/fl mice were transduced with adeno-LacZ or -Cre. 24 h later, cells were incubated with tunicamycin (0.5 μg/ml) or vehicle control for 4 h. Nuclear lysates were immunoblotted for ATF4 and nucleophosmin (Np) as a loading control. FIG. 94B. Nuclear ATF4 and nucleophosmin (Np) were probed in livers from DIO Camk2g^fl/fl mice treated with TBG-Cre or TBG-LacZ or ob/ob mice treated with adeno-LacZ or -K43A-CaMKII. FIG. 94C. HCs from […] were transduced with adeno-LacZ or -Cre and then 4 h later, half of the adeno-Cre transduced cells received adeno-ATF4, while the other half received adeno-LacZ control. After 24 h, the cells were incubated with palmitate and then insulin-induced p-Akt was assayed as in FIG. 92. FIG. 94D. As in FIG. 94C, except that Trb3 mRNA was assayed by RT-qPCR (Bars with different symbols are different from each other and control, p<0.01; mean±S.E.M.). […] Livers were assayed for p-Akt, total Aid, β-actin and nuclear ATF4 and nucleophosmin (Np) by immunoblotting after insulin injection through portal vein. 5 h fasting blood glucose and plasma insulin were assayed after three weeks of treatment (Differing symbols indicate p<0.05; mean±S.E.M.). See also FIG. 100.

With Cl.Cl.O=S(=O)(NCCNCC=Cc1ccc(Br)cc1)c1cccc2cnccc12 [H89, N-[2-[[3-(4-Bromophenyl)-2-propenyl]amino]ethyl]-5-isoquinolinesulfonamide dihydrochloride] the “glucagon-induced CaMKII phosphorylation” value ([1]; HCs pre-treated with inhibitor, then glucagon) was “markedly inhibited”, the “cytosolic calcium mobilization in response to glucagon (and forskolin)” value [2] was “partially reversed” and the “Forskolin-Induced IP3R Activation” value [3] was “Suppresses”.

CCCCCCCCCCCCCCCC(=O)O [palmitate] was tested, and the “p-CaMKIIγ in HCs” value ([1]; ER stress activation) was “increased”, the “insulin-induced p-Akt signal” value [4] was “lowered” and the “dach1 and dach2 mRNA levels” value [5] was “induces”. For the same compound, the TRB3 levels [6] was “increase”.

With tunicamycin the ATF4 [7] was “increased”.
